From PubChem BioAssay AID179 (DTP/NCI, 2004)
Calls of active or inactive are those of the source.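 The calls were made as follows: active = compounds giving half or more protection of infected cells from virus-caused growth loss, again on retest; inactive = the rest.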 Where a SMILES comes first, the peptide text is derived from it. The star is where a group is joined. ONp = O=[N+]([O-])c1ccc(O*)cc1; Cbz = O=C(OCc1ccccc1)*; OBn = c1ccc(CO*)cc1

System: CEM cells HIV-1 protection, formazan growth assay
Assay: NCI AIDS Antiviral Assay
Conditions: for IC50: measured here: growth of uninfected CEM cells
Outline: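 Human CEM cells, uninfected and HIV-1-infected, exposed to five drug concentrations; growth measured by soluble formazan assay and scored as percent protection from infection, with protecting compounds retested.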

Structure (SMILES) | EC50 [µM] | IC50 [µM] | outcome
CCOc1cc2c(cnc3c4cc(OC)c(OC)cc4ccc23)cc1OC | > 27.5 | > 27.5 | –
CC1(C)CC(Br)(C(Br)c2ccccc2)C(=O)c2ccccc21 (stereo not drawn) | > 200 | 3.89 | –
Cc1ccc(C)c(NC(=O)CC2C(=O)Nc3ccccc3S2(=O)=O)c1 (stereo not drawn) | > 4.07 | > 4.07 | –
NC(CCC(=O)NCCCC(=O)O)C(=O)O (stereo not drawn) | > 85.1 | > 85.1 | –
C=CCCCN1CCCC(C)C1=S (stereo not drawn) | > 251 | > 251 | –
COc1ccc(/C=c2/sc3n(c2=O)C(c2ccccc2)C2(O)CCCCC2N=3)cc1 (stereo not drawn) | > 200 | > 200 | –
CN(C)c1ccc(C2SCC(=O)N2NS(=O)(=O)c2cccc(C(=O)O)c2)cc1 (stereo not drawn) | > 200 | 79.4 | –
Nc1nc(N)c(-c2ccccc2)c(CCC(=O)Nc2ccc(Cl)cc2)n1 | > 490 | 24 | –
Clc1ccc(-c2nnc3n2NC(c2ccccc2)S3)c(Cl)c1 (stereo not drawn) | > 85.1 | 69.2 | –
O=C(CC(C(=O)c1cccs1)c1cccs1)c1ccccc1Cl (stereo not drawn) | > 200 | 18.6 | –
O=C(NNC(=S)NC1CCCCC1)C12CC3CC(CC(C3)C1)C2 | > 200 | > 200 | –
CC1COS(=O)N1c1ccccc1 (stereo not drawn) | > 479 | > 479 | –
COC(=O)CC(NC(=O)OCc1ccccc1)C(C(=O)OCc1ccccc1)C1(C)OCCO1 (stereo not drawn) | > 50.1 | 34.7 | –
COc1ccc(C2(CC(C)C)CCN(S(=O)(=O)c3ccc(C)cc3)C2)cc1OC (stereo not drawn) | > 178 | 20 | –
CCOC(=O)C1(C(=O)OCC)NC(=O)CC1CC (stereo not drawn) | – | – | inactive
O=c1oc2ccccc2c(O)c1C(c1ccccc1)c1c(O)c2ccccc2oc1=O | > 200 | 33.1 | –
O=C1c2cc(O)cc(O)c2C(=O)c2c(O)cc(CO)cc21 | – | – | inactive
O=S(=O)(N=[Se](=O)(c1ccccc1)c1ccccc1)c1ccccc1 | > 200 | 115 | –
C/C(=N/OCCC(=O)O)C1CC1 | > 1450 | > 1450 | –
S=C(Oc1ccccc1)SSC(=S)Oc1ccccc1 | > 200 | 19.1 | –
Cc1c2oc(=O)cc(-c3ccccc3)c2cc2c(=O)ccoc12 | > 22.4 | > 22.4 | –
S=C1Cc2c(-c3ccccc3)cc(-c3ccc(Cl)cc3)nc2-c2ccccc2N1 | > 200 | 3.39 | –
Cc1ncc([N+](=O)[O-])n1CCNC(=O)CCCCn1ccnc1[N+](=O)[O-] | > 200 | > 200 | –

Structure (SMILES) | EC50 [µM] | IC50 [µM] | outcome
COc1cc(C(C#N)NNc2nc(C)cc(=O)[nH]2)cc(OC)c1OC (stereo not drawn) | > 105 | > 105 | –
Cn1c(/C=N/NC(=O)c2ccc(C(=O)N/N=C/c3c[n+]4ccccc4n3C)cc2)c[n+]2ccccc12 | 35.5 | 43.7 | –
O=C(N/C(=C\c1ccc(/C=C(\NC(=O)c2ccccc2)c2nc3ccccc3[nH]2)cc1)c1nc2ccccc2[nH]1)c1ccccc1 | – | – | inactive
CC[S+](C)c1ccc(-c2c3nc(c(-c4ccc([S+](C)CC)cc4)c4ccc([nH]4)c(-c4ccc([S+](C)CC)cc4)c4nc(c(-c5ccc([S+](C)CC)cc5)c5ccc2[nH]5)C=C4)C=C3)cc1 (stereo not drawn) | 4.79 | 13.2 | –
O=C(Cc1nc2ccccc2s1)C(=O)Nc1ccc(Cl)cc1Cl | – | – | inactive
S=c1sc2ccccc2n1CNc1ccccc1Cl | > 200 | 28.2 | –
CCC1(CC)SCC(=O)NC1=O | > 200 | > 200 | –
CC(C)c1oc(=O)cc2c1C(O)C1OC(=O)C3(C)C(O)C4OC4C2(C)C13 (stereo not drawn) | > 36.3 | 0.17 | –
COc1cccc(/C(C=O)=C(\Cl)c2ccc(OC)c(OC)c2)c1 | > 21.9 | 11.5 | –
Cc1c(-c2ccccc2)sc(/N=C/c2cc(Br)cc(Br)c2O)c1C#N | > 20 | 0.708 | –
O=C(O)c1ccc(-c2c3ccc(=O)cc-3oc3cc(O)ccc23)cc1 | > 200 | 107 | –
Cc1ccc(S(=O)(=O)N2CCCCCC2)cc1 | > 200 | > 100 | –
Clc1ccc(CN2COc3c(cc(Cl)c4cccnc34)C2)cc1Cl | > 200 | 1.07 | –
Nc1cc2nc3ccccc3sc-2cc1=O | 3.39 | 60.3 | –
C=C1OC(=O)/C(=C/CCCCCCCCCCCCCCCCC)[C@@H]1O | > 27.5 | > 27.5 | –
C/C(O)=C(\C=NC(=S)c1ccncc1)C(=O)Nc1ccccc1C | > 200 | > 200 | –
Cc1ccc(Nc2nc(NS(=O)(=O)c3cc(C(=O)Nc4ccc(Cl)cc4)c(Cl)cc3S)n[nH]2)cc1 | > 195 | 178 | –
CCCCn1c(C)c(C(=O)OCC)c2cc(OCc3ccc(C(=O)Nn4c(C)ccc4C)cc3)c(Br)cc21 | > 95.5 | > 95.5 | –
O=S1(=O)c2ccccc2C(O)(c2ccccc2)c2cc3ccccc3n21 (stereo not drawn) | > 27.5 | > 27.5 | –
CN1C(=O)n2c(nc3ccccc32)C(N=[N+]=[N-])(N=[N+]=[N-])C1=O (stereo not drawn) | 70.8 | > 100 | –
CC12CCC(C=C1N1CCCCC1)C(C)(C)O2 (stereo not drawn) | > 1070 | > 1070 | –
COc1ccc(-c2n[nH]c3c2CCCc2ccccc2-3)cc1 | > 43.7 | 18.2 | –
CC(=O)O[C@H]1CC[C@H]2[C@@H]3CCC4=CC(=O)C=C[C@]4(O)[C@H]3CC[C@]12C | > 200 | 10.2 | –

Structure (SMILES) | EC50 [µM] | IC50 [µM] | outcome
N#Cc1c(N)c2c(c(-c3ccccc3)c1-c1ccccc1)C(=O)N(NC(=S)Nc1ccccc1)C2=O | > 58.9 | 47.9 | –
CC1(C)OC(=O)C(C)(C)OC1=O | > 200 | > 200 | –
CCOC(=O)C1=C(Nc2ccc(Cl)cc2Cl)OCC1=O | – | – | inactive
COc1cc(/C=C/C(=O)O)ccc1OS(=O)(=O)O | > 200 | > 200 | –
O=[N+]([O-])c1ccccc1S(=O)(=O)c1ccccc1[N+](=O)[O-] | 1.26 | 145 | –
CSC1=N/C(=C\c2ccc(Cl)cc2)C(=O)N1CN1CCCCC1 | > 200 | > 200 | –
O=C(O)c1ccc(CS(=O)(=O)c2ccccc2C(=O)O)c([N+](=O)[O-])c1 | > 692 | > 692 | –
N.N.N.N.[Cl-].[Co+3].[N-]=[N+]=[N-].[N-]=[N+]=[N-] | – | – | inactive
N#C/C(=C/N1C(=O)CC(=O)NC1=S)C(N)=O | > 200 | > 200 | –
COC(=O)C1(O)c2ccccc2N=C2C(=O)c3ccccc3N21 (stereo not drawn) | > 200 | > 200 | –
CCOC(=O)c1ccc[c]([Sb](=[O])([OH])[OH])c1 | 4.9 | 398 | –
CC(=N/NC(=S)N(C)C)/C(=N\NC(=S)N(C)C)c1ccccc1 | > 200 | 3.63 | –
OC(CNc1ncccn1)c1ccccc1 (stereo not drawn) | > 200 | > 200 | –
O=C(CC1=Nc2nnc(-c3nnc4n3C(=O)C(CC(=O)c3cccnc3)=N4)n2C1=O)c1cccnc1 | > 15.1 | > 15.1 | –
CCn1cc2c(=O)n3ncn(-c4ccc(Br)cc4)c3nc2n1 | – | – | inactive
Cn1c(N=P(c2ccccc2)(c2ccccc2)c2ccccc2)c([N+](=O)[O-])c(=O)n(C)c1=O | – | – | inactive
O=[N+]([O-])c1ccccc1Sc1ccc(Cl)cc1 | > 135 | 38.9 | –
N#C/C(=C\c1c(O)ccc2ccccc12)c1ccc([N+](=O)[O-])cc1 | > 100 | > 100 | –
O=C1c2ccccc2C(=O)c2nc3ccc(Cl)cc3cc21 | > 6.17 | > 6.17 | –
COc1ccc2nc3n(c2c1)C(c1c(Cl)cccc1Cl)SC3 (stereo not drawn) | > 200 | > 200 | –
O=C(Nc1ccc(/C=C\c2ccc(NC(=O)c3cc(S(=O)(=O)O)c4cccnc4c3O)cc2S(=O)(=O)O)c(S(=O)(=O)O)c1)c1cc(S(=O)(=O)O)c2cccnc2c1O | > 100 | > 100 | –
CN1C(=O)C(Br)SC1=S (stereo not drawn) | > 31.6 | > 31.6 | –
CN1/C(=C/C=C/C=C/C=C2C(=O)c3ccccc3C2=O)C(C)(C)c2ccccc21 | 120 | 151 | –

Structure (SMILES) | EC50 [µM] | IC50 [µM] | outcome
O=C1N=C2SCCCN2C1(c1ccccc1)c1ccccc1 | > 200 | > 200 | –
CC12CCC(C(=O)OC1=O)C(C)(C)O2 (stereo not drawn) | > 200 | > 200 | –
O=C(Nc1ccccc1)OCCN=C1c2ccccc2C(Br)C(Br)c2ccccc21 (stereo not drawn) | > 200 | 0.794 | –
Cn1c2ccccc2c2nnc(NCCCO)nc21 | > 200 | 148 | –
Cn1c(N)c(N=Nc2ccc(S(=O)(=O)Nc3ccccn3)cc2)c(=O)n(C)c1=O | – | – | inactive
Cc1c(OCc2cccc3ccccc23)ccc2c(=O)cc(S)oc12 | > 200 | 93.3 | –
O=C(CN1CCN(Cc2ccccc2)CC1)N1CCCn2c1nc1ccccc1c2=O | > 200 | > 200 | –
COc1ccc(-c2cc(-c3ccccc3)c3c(n2)-c2ccccc2NC(=O)C3)cc1 | > 200 | 38 | –
CCOC(=O)C(NCc1cccc(C(F)(F)F)c1)(NC(=O)CC)C(F)(F)F (stereo not drawn) | > 200 | > 100 | –
O=C(O)c1ccccc1Sc1ccc(C=C2NC(=S)N(c3ccccc3)C2=O)s1 | > 200 | 97.7 | –
COC(=O)C1(O)C(c2ccccc2)=NC2(C)CCCC21 (stereo not drawn) | > 200 | > 200 | –
O=C(CNC(=O)C(CCC(=O)OCc1ccccc1)NC(=O)OCc1ccccc1)NCC(=O)NC(CO)C(=O)NCC(=O)Oc1ccc([N+](=O)[O-])cc1 (stereo not drawn) (Cbz-E(OBn)GGSG-ONp; configuration not given here) | > 91.2 | > 91.2 | –
O=c1cc(-c2ccccc2)oc2ccc(O)cc12 | > 200 | 67.6 | –
O=c1c(I)c[nH]cc1I | > 200 | > 200 | –
CC1(C)COC2(c3ccccc3)N(c3ccccc3)C(=O)ON12 (stereo not drawn) | > 200 | > 200 | –
NS(=O)(=O)c1nnc(NS(=O)(=O)c2ccccc2C(=O)O)s1 | > 200 | > 200 | –
O=C(C1OC1c1ccc(F)cc1)C12CC3CC(CC(C3)C1)C2 (stereo not drawn) | > 200 | 12 | –
COC(=O)C(Cc1cc(OC)c(OC)c(OC)c1)C(=O)OC | > 302 | > 302 | –
C/C(=N\O)c1ccccc1 | – | – | inactive
CN(C)c1ccc(S(=O)c2ccc(N(C)C)cc2)cc1 | > 34.7 | > 34.7 | –
